Read-outs that look alike come from different tables or passages of the source.
Key:
Assay type in all cases: in vivo
[1] = Acute toxicity, minimal motor impairment (rotorod), mice; details: mice, rotorod; for TOX 30 0.5 h (animals toxic/tested) / TOX 30 4 h (animals toxic/tested): 30 mg/kg; for TOX 100 0.5 h (animals toxic/tested) / TOX 100 4 h (animals toxic/tested): 100 mg/kg; for TOX 300 0.5 h (animals toxic/tested) / TOX 300 4 h (animals toxic/tested): 300 mg/kg
Protocol: Toxicity was measured using the minimal motor impairment test described below.
Animals are monitored for overt signs of impaired neurological or muscular function to assess a compound's toxicity. In mice, the rotorod procedure is used to disclose minimal muscular or neurological impairment. When a mouse is placed on a rotating rod (6 rpm), the animal can maintain its equilibrium for long periods of time. The animal is considered toxic if it falls off the rotating rod three times during a 1 minute period. In rats, minimal motor deficit is indicated by ataxia, which is manifested by an abnormal, uncoordinated gait.

MES-induced seizures = test: Maximal Electroshock Seizure (MES) test, mice; details: mice, i.p.; for responders at 30 mg/kg / responders at 100 mg/kg / responders at 300 mg/kg: Mus musculus, ip
Excerpt: The MES test is a model for generalized tonic-clonic seizures. The seizures are highly reproducible and electrophysiologically consistent with human seizures. The test provides information about a compound's ability to prevent the spread of seizure when all neuronal circuits of the brain are maximally active. 60 Hz of alternating current (50 mA in mice, 150 mA in rats) is applied for 2 seconds via corneal electrodes that have been treated with an electrolyte solution containing an anesthetic (0.5% tetracaine HCl). Mice are tested at a variety of intervals after an i.p. injection of […] solution of the test compound (commonly in a 0.5% solution of methylcellulose) at 30, 100, and 300 mg/kg doses. Rats are examined after a 30 mg/kg (per os, p.o.) dose that is applied in a volume of 0.04 mL/g. An animal is considered “protected” from MES-induced seizures upon removal of the hind limb extensor component of the seizure.
(§1) Male and female albino CF1 mice (18-25 g, Charles River, Portage, Mich.) and male albino Sprague-Dawley rats (275-300 g, kindling test; 100-150 g all other tests; Charles River, Raleigh, N.C.) were used as experimental animals.

[2] = system: metrazole-induced clonic seizures; test: Subcutaneous Metrazole Seizure Threshold Test (scMET), mice; details: mice; for responders at 30 mg/kg / responders at 100 mg/kg / responders at 300 mg/kg: Mus musculus, sc
Protocol: The subcutaneous injection of metrazole, which is a convulsant, produces clonic seizures in laboratory animals. The scMET test is designed to identify compounds that raise the seizure threshold of an animal. Mice are pretreated with test compound at 30, 100, and 300 mg/kg doses in a similar manner to the MES test. Rats are treated with a 50 mg/kg dose (p.o.). At the previously determined TPE of the test compound, the dose of metrazole that will induce convulsions in 97% of animals (CD97: 85 mg/kg mice) is injected into the loose fold of the skin in the midline of the neck. The animals are placed in isolation cages to minimize stress and observed for the next 30 minutes for the presence or absence of seizures. An episode of clonic spasms (approximately 3-5 seconds) of the fore and/or hindlimbs, jaws or vibrissae is taken as the endpoint.
as §1

[3] = 30 mg/kg, 0.5 h, read-out: MES 30 0.5 h (animals protected/tested)
[4] = 30 mg/kg, 4 h, read-out: MES 30 4 h (animals protected/tested)
[5] = 100 mg/kg, 0.5 h, read-out: MES 100 0.5 h (animals protected/tested)
[6] = 100 mg/kg, 4 h, read-out: MES 100 4 h (animals protected/tested)
[7] = 300 mg/kg, 0.5 h, read-out: MES 300 0.5 h (animals protected/tested)
[8] = 300 mg/kg, 4 h, read-out: MES 300 4 h (animals protected/tested)
[9] = 30 mg/kg, 0.4 h, read-out: scMET 30 0.4 h (animals protected/tested)
[10] = 30 mg/kg, 0.5 h, read-out: scMET 30 0.5 h (animals protected/tested)
[11] = 100 mg/kg, 0.4 h, read-out: scMET 100 0.4 h (animals protected/tested)
[12] = 100 mg/kg, 0.5 h, read-out: scMET 100 0.5 h (animals protected/tested)
[13] = 300 mg/kg, 0.4 h, read-out: scMET 300 0.4 h (animals protected/tested)
[14] = 300 mg/kg, 0.5 h, read-out: scMET 300 0.5 h (animals protected/tested)

Structure (SMILES)	TOX 30 0.5 h (animals toxic/tested) [1]	TOX 30 4 h (animals toxic/tested) [1]	TOX 100 0.5 h (animals toxic/tested) [1]	TOX 100 4 h (animals toxic/tested) [1]	TOX 300 0.5 h (animals toxic/tested) [1]	TOX 300 4 h (animals toxic/tested) [1]	responders at 30 mg/kg (MES-induced seizures; [3]) [%]	responders at 30 mg/kg (MES-induced seizures; [4]) [%]	responders at 100 mg/kg (MES-induced seizures; [5]) [%]	responders at 100 mg/kg (MES-induced seizures; [6]) [%]	responders at 300 mg/kg (MES-induced seizures; [7]) [%]	responders at 300 mg/kg (MES-induced seizures; [8]) [%]	responders at 30 mg/kg [2, 9] [%]	responders at 30 mg/kg [2, 10] [%]	responders at 100 mg/kg [2, 11] [%]	responders at 100 mg/kg [2, 12] [%]	responders at 300 mg/kg [2, 13] [%]	responders at 300 mg/kg [2, 14] [%]	further results
COC(=O)C1[C@@H]2[C@@H](O)[C@@H]3OC(C)(C)OC[C@H]3O[C@H]12 (stereo partly drawn) [Compound 10, Methyl (4aR,5aS,6aR,7R,7aS)-7-hydroxy-2,2-dimethylhexahydro-4H-cyclopropa[5,6]pyrano[3,2-d][1,3]dioxine-6-carboxylate]	0/4	0/2	0/8	0/4	0/4	0/2	0	0	0	0	0	0	0	0	0	0	0	0	–
COC(=O)[C@H]1C2O[C@@H]3CO[Si](C(C)(C)C)(C(C)(C)C)O[C@@H]3[C@H](O)[C@@H]21 (stereo partly drawn) [Compound 14b, (1R,1as,2R,2aR,6aR)-4,4-di-tert-butyl-2-hydroxy-hexahydro-3,5,7-trioxa-4-silacyclopropa[b]naphthalene-1-carboxylic acid (S)-methyl ester]	0/4	0/2	2/8	0/4	4/4	0/2	–	–	–	–	–	–	–	–	–	–	–	–	MES 30 0.5 h (animals protected/tested) (MES-induced seizures; 30 mg/kg, 0.5 h): 0/1; MES 30 4 h (animals protected/tested) (MES-induced seizures; 30 mg/kg, 4 h): 0/1; MES 100 0.5 h (animals protected/tested) (MES-induced seizures; 100 mg/kg, 0.5 h): 0/3; MES 100 4 h (animals protected/tested) (MES-induced seizures; 100 mg/kg, 4 h): 0/3; MES 300 0.5 h (animals protected/tested) (MES-induced seizures; 300 mg/kg, 0.5 h): 0/1; MES 300 4 h (animals protected/tested) (MES-induced seizures; 300 mg/kg, 4 h): 0/1; scMET 30 0.4 h (animals protected/tested) ([2]; 30 mg/kg, 0.4 h): 0/1; scMET 30 0.5 h (animals protected/tested) ([2]; 30 mg/kg, 0.5 h): 0/1; scMET 100 0.4 h (animals protected/tested) ([2]; 100 mg/kg, 0.4 h): 0/1; scMET 100 0.5 h (animals protected/tested) ([2]; 100 mg/kg, 0.5 h): 0/1; scMET 300 0.4 h (animals protected/tested) ([2]; 300 mg/kg, 0.4 h): 0/1; scMET 300 0.5 h (animals protected/tested) ([2]; 300 mg/kg, 0.5 h): 0/1
CCOC(=O)C1[C@@H]2[C@@H](OS(=O)(=O)N(C)C)[C@@H]3O[C@H](c4ccc(OC)cc4)OC[C@H]3O[C@H]12 (stereo partly drawn) [Compound 17a, Ethyl (2R,4aR,5aS,6aS,7R,7aR)-7-[(dimethylsulfamoyl)oxy]-2-(4-methoxyphenyl)hexahydro-4H-cyclopropa[5,6]pyrano[3,2-d][1,3]dioxine-6-carboxylate]	0/4	0/2	0/8	0/4	0/4	0/2	0	0	0	0	0	0	0	0	0	0	0	0	–
CCOC(=O)C1[C@@H]2[C@@H](OC)[C@@H]3O[C@H](c4ccc(OC)cc4)OC[C@H]3O[C@H]12 (stereo partly drawn) [Compound 18, Ethyl (2R,4aR,5aS,6aS,7R,7aS)-7-methoxy-2-(4-methoxyphenyl)hexahydro-4H-cyclopropa[5,6]pyrano[3,2-d][1,3]dioxine-6-carboxylate]	0/4	0/2	0/8	0/4	0/4	0/2	0	0	0	0	0	0	0	0	0	0	0	0	–
CCOC(=O)C1[C@@H]2[C@@H](O)[C@@H]3O[C@H](c4ccccc4)OC[C@H]3O[C@H]12 (stereo partly drawn) [Compound 20a, Ethyl (2R,4aR,5aS,6aR,7R,7aS)-7-hydroxy-2-phenylhexahydro-4H-cyclopropa[5,6]pyrano[3,2-d][1,3]dioxine-6-carboxylate]	0/4	0/2	0/8	0/4	0/4	0/2	0	0	0	0	0	0	0	0	0	0	0	0	–
CCOC(=O)C1[C@@H]2[C@@H](O)[C@@H]3O[C@H](c4ccc(C(C)(C)C)cc4)OC[C@H]3O[C@H]12 (stereo partly drawn) [Compound 20c, Ethyl (2R,4aR,5aS,6aR,7R,7aS)-2-(4-tert-butylphenyl)-7-hydroxyhexahydro-4H-cyclopropa[5,6]pyrano[3,2-d][1,3]dioxine-6-carboxylate]	0/4	0/2	0/8	0/4	0/4	0/2	0	0	0	0	0	0	0	0	0	0	0	0	–
CCOC(=O)C1[C@@H]2[C@@H](O)[C@@H]3O[C@H](c4cccc(OC)c4)OC[C@H]3O[C@H]12 (stereo partly drawn) [Compound 20e, Ethyl (2R,4aR,5aS,6aR,7R,7aS)-7-hydroxy-2-(3-methoxyphenyl)hexahydro-4H-cyclopropa[5,6]pyrano[3,2-d][1,3]dioxine-6-carboxylate]	0/4	0/2	0/8	0/4	0/4	0/2	0	0	0	0	0	0	0	0	0	0	0	0	–
